From US20130065958A1, “METHODS FOR DISINFECTING OR STERILIZING ARTICLES” (priority 2011, published 2013)
Values joined by “and” are separate entries in the source; they are usually repeats but may differ in a detail not shown here. Equal values may be shown once. Read-outs that look alike come from different tables or passages of the source.

Test system: Bacillus atrophaeus ATCC 9372 spores
Conditions: 3 drops, overnight (15 hours) at 35 C
Method: Before sealing, the inside surface of the bottle cap (liner removed) or its foam liner had been inoculated with a 10 μL droplet of Bacillus atrophaeus ATCC 9372 spores dried down onto the cap or liner surface. Bacillus atrophaeus ATCC 9372 spores are known to be of relatively high resistance to peroxide disinfection and are a recommended (for example, the U.S. Pharmacopeia) resistant organism for disinfection studies using chemicals (such as peroxide or ethylene oxide) or dry heat.

OO [3% hydrogen peroxide, hydrogen peroxide]
CFU Recovered (inoculated on cap): 425000 CFU and 475000 CFU
Log Reduction (inoculated on cap): 1.2 and 1.1
CFU Recovered (inoculated on liner): 830000 CFU
Log Reduction (inoculated on liner): 0.4
